Assay results as given in US10544126B2, “Sulfonyl piperidine derivatives and their use for treating prokineticin mediated diseases” (TAKEDA PHARMACEUTICAL COMPANY LIMITED, priority 2012, dated 2020).

Target: human PKR1 receptors (Homo sapiens (Human), UniProt Q8TCW9)
Test: PKR1 antagonist assay: block of PK1-mediated intracellular calcium release (FLIPR)
Type: cell-based
Details: antagonist activity; RBL2H3 cells expressing human PKR1; stimulation with PK1 at EC80; calcium fluorescence
Method: Prokineticin receptor 1 (PKR1) antagonists may be functionally assessed by measurement of change in intracellular calcium levels induced by Gq mediated increase in inositol triphosphate (IP3) levels. The ability of a compound to block the intracellular release of calcium mediated by PK1 in RBL2H3 cells expressing human PKR1 receptors is determined as a measure of the compound's antagonist activity in vitro.
Approximately 10,000 cells per assay well are seeded in normal culture medium in a 384 well plate (Corning). […]
To test for antagonist activity, test compounds at a final concentration range between 0.32 nM-10 μM (diluted in assay buffer) are added to the assay wells and allowed to incubate for 10 minutes prior to stimulation with PK1. After incubation with test compounds the assay plate is placed in a FLIPR Tetra (Molecular Devices) and PK1 (diluted in assay buffer) is added at the determined EC80 concentration (final). Ligand-dependent changes in intracellular calcium levels are determined by measuring changes in fluorescence of the dye at […] following excitation at 485 nm.

Sequence of human PKR1 receptors (Q8TCW9 whole entry): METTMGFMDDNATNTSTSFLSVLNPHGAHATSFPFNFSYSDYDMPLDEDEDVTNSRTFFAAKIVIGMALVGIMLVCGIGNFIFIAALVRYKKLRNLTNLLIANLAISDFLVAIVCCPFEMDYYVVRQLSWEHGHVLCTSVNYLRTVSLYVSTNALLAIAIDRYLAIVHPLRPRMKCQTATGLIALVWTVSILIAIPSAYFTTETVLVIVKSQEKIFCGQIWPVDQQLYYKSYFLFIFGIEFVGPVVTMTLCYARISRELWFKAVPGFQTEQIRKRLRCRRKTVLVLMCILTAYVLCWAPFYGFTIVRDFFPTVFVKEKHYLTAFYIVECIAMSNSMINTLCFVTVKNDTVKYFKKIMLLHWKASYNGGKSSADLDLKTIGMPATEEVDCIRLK

Cc1n[nH]c(C)c1S(=O)(=O)N1CCC(C(C#N)c2ccc(Cl)cc2F)CC1 (stereo not shown) [Example 92, 2-(4-Chloro-2-fluorophenyl)-2-(1-((3,5-dimethyl-1H-pyrazol-4-yl)sulfonyl)piperidin-4-yl)acetonitrile]
IC50: 1850 nM
